Experimental data: the supplement of paper PMC10307832

Tests used:
Assay in all cases: relative viability (nuclei count vs DMSO), 5 days (fraction); higher = more cells survive
[1] = compound: CCN1CCN(c2ccc(Nc3cc(N(C)C(=O)Nc4c(Cl)c(OC)cc(OC)c4Cl)ncn3)cc2)CC1 [BGJ398] + CCNC(=O)c1noc(-c2cc(C(C)C)c(O)cc2O)c1-c1ccc(CN2CCOCC2)cc1 [Luminespib] (partner 0.01 µM)
In short: (§1)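 For relative viability, nuclei counts in treated wells were divided by those in vehicle wells. Lung cancer cell lines had been pin-tool dosed in 1536-well plates the day after seeding and cultured for 5 days, then fixed and stained in one step (final 0.05% Triton X-100, 1% formaldehyde, 1 ug/ml Hoechst) and imaged at 4×. Doses were one drug alone or a fixed anchor-drug dose plus five library-drug doses (not always all listed) in √10 steps, and values are duplicate-plate medians.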

[2] = compound: C1=CC2=NC=CN=C2C=C1/C=C/3\C(=O)NC(=O)S3 + O=C(CCCCCCC(=O)Nc1ccccc1)NO [Vorinostat] (partner 1 µM)
In short: as §1

[3] = compound: CCN1CCN(c2ccc(Nc3cc(N(C)C(=O)Nc4c(Cl)c(OC)cc(OC)c4Cl)ncn3)cc2)CC1 [BGJ398] + O=C(c1cc(Cc2n[nH]c(=O)c3ccccc23)ccc1F)N1CCN(C(=O)C2CC2)CC1 [Olaparib] (partner 8 µM)
In short: as §1

[4] = compound: CCN1CCN(c2ccc(Nc3cc(N(C)C(=O)Nc4c(Cl)c(OC)cc(OC)c4Cl)ncn3)cc2)CC1 [BGJ398] + Cc1cc(Nc2cc(N3CCN(C)CC3)nc(Sc3ccc(NC(=O)C4CC4)cc3)n2)n[nH]1 [Tozasertib] (partner 0.1 µM)
In short: as §1

Cell Line | relative viability ([1]; first compound 0.01 µM) | relative viability ([1]; first compound 0.03162 µM) | relative viability ([1]; first compound 0.1 µM) | relative viability ([1]; first compound 0.3162 µM) | relative viability ([1]; first compound 1 µM) | relative viability ([2]; first compound 0.02 µM) | relative viability ([2]; first compound 0.06325 µM) | relative viability ([2]; first compound 0.2 µM) | relative viability ([2]; first compound 0.6325 µM) | relative viability ([2]; first compound 2 µM) | relative viability ([3]; first compound 0.01 µM) | relative viability ([3]; first compound 0.03162 µM) | relative viability ([3]; first compound 0.1 µM) | relative viability ([3]; first compound 0.3162 µM) | relative viability ([3]; first compound 1 µM) | relative viability ([4]; first compound 0.01 µM) | relative viability ([4]; first compound 0.03162 µM) | relative viability ([4]; first compound 0.1 µM) | relative viability ([4]; first compound 0.3162 µM) | relative viability ([4]; first compound 1 µM)
HCC-44 | 0.974 | 1.11 | 1.32 | 1.09 | 0.942 | 0.959 | 1.13 | 1.08 | 1.13 | 1.17 | 0.963 | 0.952 | 1.02 | 0.931 | 0.953 | 0.77 | 0.947 | 1.07 | 1.1 | 0.698
NCI-H596 | 1.07 | 1.01 | 0.95 | 0.795 | 0.768 | 0.581 | 0.59 | 0.646 | 0.499 | 0.6 | 0.674 | 0.648 | 0.645 | 0.626 | 0.667 | 0.777 | 0.856 | 0.775 | 0.744 | 0.731
H3255 | 0.888 |  | 1.02 | 0.625 | 0.422 | 0.781 | 0.884 | 0.835 | 0.865 | 0.67 | 0.527 | 0.537 | 0.604 | 0.551 | 0.55 | 0.628 |  | 0.472 | 0.743 | 0.608
NCI-H647 | 0.138 | 0.107 | 0.157 | 0.184 | 0.176 | 0.545 | 0.898 | 0.485 | 0.546 | 0.494 | 0.51 | 0.643 | 0.694 | 0.521 | 0.603 | 0.366 | 0.294 | 0.406 | 0.24 | 0.304
NCI-H2023 | 0.627 | 0.849 | 0.739 | 0.851 | 0.809 | 0.675 | 0.51 | 0.739 | 0.632 | 0.441 | 0.486 | 0.465 | 0.513 | 0.463 | 0.503 | 0.309 | 0.345 | 0.301 | 0.232 | 0.255
NCI-H23 | 0.228 | 0.213 | 0.203 | 0.22 | 0.189 | 0.508 | 0.588 | 0.697 | 0.546 | 0.385 | 0.333 | 0.297 | 0.303 | 0.371 | 0.268 | 0.387 | 0.339 | 0.335 | 0.36 | 0.304
NCI-H1944 | 0.687 | 0.714 | 0.787 | 0.722 | 0.716 | 0.515 | 0.511 | 0.551 | 0.536 | 0.512 | 0.432 | 0.416 | 0.425 | 0.385 | 0.445 | 0.237 | 0.244 | 0.229 | 0.27 | 0.273
NCI-H1793 | 0.167 | 0.229 | 0.175 | 0.163 | 0.196 | 0.635 | 0.616 | 0.765 | 0.676 | 0.679 | 0.828 | 0.721 | 1.02 | 0.824 | 0.739 | 0.337 | 0.351 | 0.3 | 0.3 | 0.287
NCI-H520 | 0.205 | 0.235 | 0.234 | 0.205 | 0.203 | 0.879 | 0.834 | 0.645 | 0.802 | 0.677 | 0.265 | 0.355 | 0.314 | 0.202 | 0.238 | 0.424 | 0.421 | 0.321 | 0.273 | 0.271
NCI-H460 | 0.0344 | 0.0414 | 0.0281 | 0.0308 | 0.0303 | 0.657 | 0.668 | 0.759 | 0.716 | 0.819 | 0.39 | 0.42 | 0.428 | 0.414 | 0.381 | 0.446 | 0.558 | 0.437 | 0.372 | 0.456
EKVX | 0.783 | 0.859 | 0.999 | 0.782 | 0.966 | 0.704 | 0.576 | 0.761 | 0.709 | 0.594 | 0.872 | 0.884 | 0.812 | 0.74 | 0.696 | 0.387 | 0.421 | 0.431 | 0.436 | 0.389
NCI-H358 | 0.449 | 0.268 | 0.394 | 0.372 | 0.289 | 0.674 | 0.714 | 0.725 | 0.659 | 0.579 | 0.744 | 0.622 | 0.619 | 0.698 | 0.584 | 0.0959 | 0.0952 | 0.109 | 0.102 | 0.1
EPLC-272H | 0.29 | 0.235 | 0.21 | 0.716 | 0.451 | 0.385 | 0.411 | 0.562 | 0.413 | 0.524 | 0.626 | 0.829 | 0.594 | 0.797 | 0.656 | 0.17 | 0.276 | 0.203 | 0.288 | 0.227
NCI-H1395 | 0.63 | 0.661 | 0.665 | 0.557 | 0.415 | 1 | 0.733 | 0.824 | 0.77 | 0.668 | 0.441 | 0.426 | 0.434 | 0.428 | 0.409 | 0.739 | 0.789 | 0.72 | 0.624 | 0.511
